How the values were obtained:
Assay in all cases: relative viability (nuclei count vs DMSO), 5 days (fraction); higher = more cells survive
VE-821 + Alpelisib = compound: CS(=O)(=O)c1ccc(-c2cnc(N)c(C(=O)Nc3ccccc3)n2)cc1 [VE-821] + Cc1nc(NC(=O)N2CCC[C@H]2C(N)=O)sc1-c1ccnc(C(C)(C)C(F)(F)F)c1 [Alpelisib] (partner 2 µM)
In short: (§1)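 Lung cancer cell lines were pin-tool dosed in 1536-well plates on the day after seeding, with either a lone drug or a fixed anchor-drug dose plus five library-drug doses (not always all listed) in √10 steps. Nuclei were counted on 4× images after 5 days. Relative viability is the ratio of treated-well to vehicle-well nuclei counts, with each value a median of duplicate plates.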

Vismodegib + Trametinib = compound: CS(=O)(=O)c1ccc(C(=O)Nc2ccc(Cl)c(-c3ccccn3)c2)c(Cl)c1 [Vismodegib] + CC(=O)Nc1cccc(-n2c(=O)n(C3CC3)c(=O)c3c(Nc4ccc(I)cc4F)n(C)c(=O)c(C)c32)c1 [Trametinib] (partner 0.02 µM)
In short: as §1

Vismodegib + Olaparib = compound: CS(=O)(=O)c1ccc(C(=O)Nc2ccc(Cl)c(-c3ccccn3)c2)c(Cl)c1 [Vismodegib] + O=C(c1cc(Cc2n[nH]c(=O)c3ccccc23)ccc1F)N1CCN(C(=O)C2CC2)CC1 [Olaparib] (partner 8 µM)
In short: as §1

Ruxolitinib + Lapatinib = compound: N#CC[C@H](C1CCCC1)n1cc(-c2ncnc3[nH]ccc23)cn1 [Ruxolitinib] + CS(=O)(=O)CCNCc1ccc(-c2ccc3ncnc(Nc4ccc(OCc5cccc(F)c5)c(Cl)c4)c3c2)o1 [Lapatinib] (partner 2 µM)
In short: as §1

Row | Cell Line | relative viability (VE-821 + Alpelisib; first compound 0.08 µM) | relative viability (VE-821 + Alpelisib; first compound 0.253 µM) | relative viability (VE-821 + Alpelisib; first compound 0.8 µM) | relative viability (VE-821 + Alpelisib; first compound 2.53 µM) | relative viability (VE-821 + Alpelisib; first compound 8 µM) | relative viability (Vismodegib + Trametinib; first compound 0.08 µM) | relative viability (Vismodegib + Trametinib; first compound 0.253 µM) | relative viability (Vismodegib + Trametinib; first compound 0.8 µM) | relative viability (Vismodegib + Trametinib; first compound 2.53 µM) | relative viability (Vismodegib + Trametinib; first compound 8 µM) | relative viability (Vismodegib + Olaparib; first compound 0.08 µM) | relative viability (Vismodegib + Olaparib; first compound 0.253 µM) | relative viability (Vismodegib + Olaparib; first compound 0.8 µM) | relative viability (Vismodegib + Olaparib; first compound 2.53 µM) | relative viability (Vismodegib + Olaparib; first compound 8 µM) | relative viability (Ruxolitinib + Lapatinib; first compound 0.08 µM) | relative viability (Ruxolitinib + Lapatinib; first compound 0.253 µM) | relative viability (Ruxolitinib + Lapatinib; first compound 0.8 µM) | relative viability (Ruxolitinib + Lapatinib; first compound 2.53 µM) | relative viability (Ruxolitinib + Lapatinib; first compound 8 µM)
1 | NCI-H3122 | 0.949 | 0.746 | 0.774 | 0.871 | 0.78 | 0.247 | 0.254 | 0.216 | 0.247 | 0.202 | 0.613 | 0.598 | 0.614 | 0.664 | 0.65 | 0.928 | 1.04 | 0.98 | 0.848 | 0.934
2 | PC-3 [JPC-3] | 1.05 | 0.957 | 1.02 | 1.05 | 1.04 | 0.695 | 0.713 | 0.636 | 0.615 | 0.729 | 1.09 | 1.11 | 1.03 | 1.09 | 1.17 | 0.452 | 0.431 | 0.46 | 0.488 | 0.505
3 | PC-14 | 1.08 | 0.863 | 0.981 | 0.931 | 0.936 | 0.606 | 0.65 | 0.694 | 0.659 | 0.796 | 0.262 | 0.175 | 0.254 | 0.248 | 0.254 |  | 0.243 | 0.347 | 0.316 | 0.313
4 | RERF-LC-KJ | 0.898 | 0.774 | 0.664 | 0.799 | 0.712 | 0.847 | 0.823 | 0.84 | 0.826 | 0.862 | 0.985 | 0.826 | 0.785 | 0.862 | 0.96 | 0.926 | 0.859 | 0.898 | 0.909 | 0.855
5 | SK-LU-1 | 1.02 | 0.964 | 0.803 | 0.499 | 0.328 | 0.441 | 0.473 | 0.54 | 0.441 | 0.444 | 0.343 | 0.451 | 0.481 | 0.469 | 0.522 | 0.973 | 0.991 | 0.896 | 0.819 | 0.693
6 | SK-MES-1 | 1.03 | 0.847 | 0.776 | 0.954 | 0.866 | 0.574 | 0.504 | 0.553 | 0.558 | 0.545 | 0.701 | 0.656 | 0.62 | 0.707 | 0.685 | 0.493 | 0.412 | 0.448 | 0.474 | 0.42
7 | SW 1573 | 1.07 | 0.713 | 0.745 | 0.888 | 0.774 | 0.571 | 0.522 | 0.609 | 0.548 | 0.552 |  | 0.487 | 0.476 | 0.442 | 0.497 | 1.05 | 0.99 | 1.16 | 1.07 | 1.09
